# Source: US10683260B2, “Crystalline form of sacubitril sodium salt” (NORATECH PHARMACEUTICALS, INC., priority 2016, dated 2020)
# Assays:
# AT1 receptor = molecular target: T1, AT1 receptor (Homo sapiens, UniProt P30556); conditions: AT1 versus AT2 receptor; background statement; cited from earlier work
# T1 sequence (P30556 1-359): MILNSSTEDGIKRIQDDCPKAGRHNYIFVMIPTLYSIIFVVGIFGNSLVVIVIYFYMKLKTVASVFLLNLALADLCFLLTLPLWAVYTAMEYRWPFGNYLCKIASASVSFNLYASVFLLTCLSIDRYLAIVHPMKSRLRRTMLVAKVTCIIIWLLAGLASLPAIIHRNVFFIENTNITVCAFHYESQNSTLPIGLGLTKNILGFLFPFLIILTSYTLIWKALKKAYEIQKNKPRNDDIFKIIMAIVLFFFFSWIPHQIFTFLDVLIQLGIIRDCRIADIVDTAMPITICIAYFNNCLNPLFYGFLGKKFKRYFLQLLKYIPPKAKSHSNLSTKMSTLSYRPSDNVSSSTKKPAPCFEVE
# [1] = Determination of the hygroscopicity (water absorption in artificial climate chamber); assay type: physicochemical; conditions: for Water absorption, %: open weighing bottle, 25±1° C., relative humidity 43.5±2%; for water content: open container, 25° C., relative humidity 43.5%, 3 hours
# Method: 1. Take a dry stuffed glass weighing bottle (outer diameter 50 mm, height 15 mm) in the artificial climate chamber (set temperature is 25±1° C., relative humidity is 43.5±2%) and weight it (m1).
# 2. Take the appropriate amount of the crystalline form in the present invention, and place it in the abovementioned weighing bottle and lay it inside the weighing bottle. The thickness of the test sample is generally about 1 mm. Weight the sample (m2).
# 3. Uncover the weighing bottle and place it with the bottle cap under constant temperature and humidity (set temperature is 25±1° C., relative humidity is 43.5±2%).
# 4. Put the cap back on the weighing bottle before weighing, and then weight it (m3). The water absorption percentage for each time point is calculated by the formula=(m3−m2)/(m2−m1)×100%.
# [2] = free acid; background statement; cited from earlier work
"Water absorption, % ([1]; 1.5 h) [%]","Water absorption, % ([1]; 3 h) [%]",Molecule,other results
,,AngII,affinity for the AT1 receptor relative to the AT2 receptor (AT1 receptor): 300 times
0.6,1.4,CCOC(=O)[C@H](C)C[C@@H](Cc1ccc(-c2ccccc2)cc1)NC(=O)CCC(=O)[O-].[Na+] [A],water content ([1]; listed as crystalline form A): 1.4%
8.3,11.0,"CCOC(=O)[C@H](C)C[C@@H](Cc1ccc(-c2ccccc2)cc1)NC(=O)CCC(=O)[O-].[Na+] [sacubitril sodium salt X, reference compound]","hygroscopicity (in words) ([1]; solid form, no conditions stated): great hygroscopicity"
1.5,3.2,CCOC(=O)[C@H](C)C[C@@H](Cc1ccc(-c2ccccc2)cc1)NC(=O)CCC(=O)[O-].[Na+] [D],
2.4,4.3,CCOC(=O)[C@H](C)C[C@@H](Cc1ccc(-c2ccccc2)cc1)NC(=O)CCC(=O)[O-].[Na+] [E],
,,"CCOC(=O)[C@H](C)C[C@@H](Cc1ccc(-c2ccccc2)cc1)NC(=O)CCC(=O)O [sacubitril, 4-{[(2S,4R)-1-([1,1′-biphenyl]-4-yl)-5-ethoxy-4-methyl-5-oxopentan-2-yl]amino}-4-oxobutanoic acid]",water solubility (in words) [2]: poor water solubility
1.2,2.4,CCOC(=O)[C@H](C)C[C@@H](Cc1ccc(-c2ccccc2)cc1)NC(=O)CCC(=O)[O-].[Na+] [C],water content ([1]; listed as crystalline form C): 2.4%
0.5,1.0,CCOC(=O)[C@H](C)C[C@@H](Cc1ccc(-c2ccccc2)cc1)NC(=O)CCC(=O)[O-].[Na+] [B],
